Source: patent US20180055816A1, “PYRANONAPHTHOQUINONE COMPOUNDS AND METHODS OF USE THEREOF” (University of Kentucky Research Foundation, priority 2016, published 2018)

Test system: HCT116 cells
Assay: Cell growth / cytotoxicity in HCT116 cells
Format: cell-based, human
Details: HCT116; 0.5 μM FB or UCF76-A versus 100 nM rapamycin, 0.5 μM AZD8055
Description: Compounds that pass this single dose filter are then tested in a CRC (HCT116) in vitro cytotoxicity assay and, in parallel, an in vitro assay to assess propensity for intracellular reactive oxygen species (ROS) production using the redox sensitive probe CeIIROX® Deep Red reagent (Invitrogen) by flow cytometry analysis (47).
Cell growth was assessed as described previously. Briefly, 5×10^4 cells were seeded in 6-well plates in triplicates. After 24 h, cells were treated with the indicated compounds and incubated at 37° C. The cells were cultured for 3 days and the number of viable cells was counted using the Vi-CELL XR 2.03 (Beckman Coulter, Brea, Calif.). For apoptosis, cells were analyzed by flow cytometry using the Annexin V-FITC Apoptosis Detection Kit according to the manufacturer's protocol (BD Biosciences, San Jose, Calif.).

CCCC1OC2CC(=O)OC2C2=C1C(=O)c1c(O)cccc1C2=O (stereo not shown) [FB, frenolicin B]
inhibition of CRC cell growth compared with mTOR inhibitors: more potent than mTOR inhibitors
